From PubChem BioAssay (NCI)
Several values for one entry are separate records, joined by “and”; a condition that tells them apart may be missing. Identical values can stand only once.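 How tested: cells in 96-well plates exposed to compound for 48 hours at five concentrations. GI50 marks 50% less growth. TGI: concentration producing complete growth inhibition.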

Columns and labels:
Experiment in all cases: NCI tumour cell line growth inhibition, 48 h
786-0 renal = system: 786-0 renal
LOX IMVI melanoma = system: LOX IMVI melanoma
MCF7 breast = system: MCF7 breast
MDA-MB-231 breast = system: MDA-MB-231 breast
PC-3 prostate = system: PC-3 prostate
RXF 393 renal = system: RXF 393 renal
SNB-19 CNS = system: SNB-19 CNS
SR leukemia = system: SR leukemia
T-47D breast = system: T-47D breast
TK-10 renal = system: TK-10 renal

SMILES	GI50 (786-0 renal) [µM]	TGI (786-0 renal) [µM]	GI50 (LOX IMVI melanoma)	GI50 (MCF7 breast)	GI50 (MDA-MB-231 breast)	TGI (MDA-MB-231 breast)	GI50 (PC-3 prostate) [µM]	TGI (PC-3 prostate) [µM]	GI50 (RXF 393 renal) [µM]	TGI (RXF 393 renal) [µM]	GI50 (SNB-19 CNS) [µM]	TGI (SNB-19 CNS) [µM]	GI50 (SR leukemia) [µM]	TGI (SR leukemia) [µM]	GI50 (T-47D breast)	GI50 (TK-10 renal)	TGI (LOX IMVI melanoma) [µM]	TGI (MCF7 breast) [µM]	TGI (T-47D breast) [µM]	TGI (TK-10 renal) [µM]
COc1ccc(Cn2cc(Cn3c(=O)c(-c4nc5ccccc5[nH]4)cc4ccccc43)nn2)c(OC)c1OC	0.457	2.86	0.254 µM and 0.112 µM	0.0789 µM and 0.0495 µM	0.292 µM and 0.451 µM	1.54 µM and 3.07 µM	0.313	> 100	0.129	0.49	0.423	> 100	0.291	> 100	0.154 µM and 0.804 µM	0.572 µM and 1.02 µM	–	–	–	–
CN1CCN(c2cc(Nc3cc(C4CC4)[nH]n3)nc(Nc3ccc(CC(=O)NCc4cccc(F)c4)cc3)n2)CC1	0.934	4.04	0.219 µM	0.108 µM	0.451 µM	6.16 µM	0.616	22.8	0.404	1.71	2.25	23.4	0.293	> 20.4	2.27 µM	2.92 µM	1.48	2.05	13.8	16.1
NCC(=O)CCC(=O)O	> 100	> 100	> 100 µM	> 100 µM	> 100 µM	> 100 µM	> 100	> 100	> 100	> 100	> 100	> 100	> 100	> 100	> 100 µM	> 100 µM	> 100	> 100	> 100	> 100
CCCCc1nc2cc(/C=C/C(=O)NO)ccc2n1CCN(CC)CC	0.46	11.5	0.291 µM	0.202 µM	0.485 µM	5.43 µM	0.327	16.2	0.178	0.789	0.593	12.2	0.605	> 100	0.136 µM	0.116 µM	1.28	> 20.3	> 47.4	0.598
O=C1C(=O)c2c(nc3ncccn23)-c2ccccc21	0.304	0.766	0.15 µM	0.179 µM	0.215 µM	0.67 µM	0.32	1.34	0.497	0.967	0.247	0.722	0.315	–	0.264 µM	1.85 µM	0.339	0.406	1.02	3.35
CC(C)(C)c1nnc2n(c1=O)N=CC(c1ccc(Br)cc1)S2 (centres undefined)	32.3	> 100	22.5 µM	42 µM	24.5 µM	48.1 µM	42.1	> 100	23.6	82.5	51.3	> 100	24.2	80.7	23.8 µM	34.7 µM	46.8	> 100	> 100	> 100
Cc1[nH]nc(C(=O)Nc2n[nH]c3ccccc23)c1[N+](=O)[O-]	> 100	> 100	> 100 µM	53.3 µM	> 100 µM	> 100 µM	> 100	> 100	> 100	> 100	> 100	> 100	–	> 49.3	> 100 µM	> 100 µM	> 100	> 100	> 100	> 100
